Test results from patent US8088951B2, “Epigenetic mechanisms re-establish access to long-term memory after neuronal loss” (Massachusetts Institute of Technology, priority 2006, dated 2012).

How the values were obtained:
C57BL/6J mice = assay: Contextual fear conditioning (associative learning) in wild type mice; format: in vivo; details: for associative learning, contextual fear conditioning paradigm: wildtype mice, chronic treatment for 10-21 days
Description: Learning tests: All behavioral testing is described in Fischer et al. (3).
Mechanism underlying EE. Other than a few genes involved in synaptic function, relatively little is known about the mechanism underlying EE (12-14). Since histone acetylation, an epigenetic mechanism regulating gene expression via chromatin remodeling, has recently been implicated in synaptic plasticity and learning behavior (15-18), the induction of a transcriptional program by EE that leads to activation of plasticity genes was evaluated. Wild type mice were subjected to EE and hippocampal and cortical brain lysates were obtained 3, 24 h or 2 weeks later (n=3/group) by acid extraction and probed with antibodies detecting histone-tail modification that indicate active chromatin. Increases in hippocampal H3 (K-9, K14) and H4 (K-5) and in cortical H3 (K-9) and H4 (K-5) acetylation were observed. […] No changes in H4 acetylation were observed when the Ac-H4 (K,8,12,16) antibody was used, which is likely due to the fact that H4-K16 is a marker of condensed chromatin. EE induced hippocampal and cortical histone 3 (H3) and histone 4 (H4) acetylation and […] as soon as 3 hours after treatment (FIGS. 3a, b). […] To investigate whether inhibition of HDACs mimics the effects of EE, SB was administered daily [ip] into wild type mice for 4 weeks (FIG. 3c). […] Two days after the last injection mice were trained in the fear conditioning paradigm. […] Locomotor activity or basal anxiety was not altered in SB-injected mice (FIG. 8c).
The effect of sodiumbutyrate injection on learning, basal anxiety, explorative behavior and brain plasticity. C57BL/6J mice were subjected to fear conditioning and injected intraperitoneally [ip] with 1.2 g/kg sodiumbutyrate (SB, n=8) or saline (vehicle; n=8) immediately afterwards. […] C57BL/6J mice were implanted with microcannulae into the lateral brain ventricles (icv) and injected with either 100 ng SB, 50 ng TSA or vehicle immediately after fear conditioning (n=8/group). […] C57BL/6J were daily injected [ip] with SB or saline (n=8/group) for 4 weeks before all mice were subjected to the elevated plus maze and open field test. […] Immunoblots were quantified relative to the optical density of the vehicle-group (set to 1). […] The analysis was performed as described under FIG. 1g.
(§1) The effects of SAHA and MS-275, relative to sodium butyrate (SB), on the hippocampus dependent associative learning in wildtype mice.
Mice were injected 10 days with either 5 mg/kg of MS275 or 25 mg/kg of UW_WT-I—06 or UW_WT-I—05 before training and memory tests as described above. […] Andorfer, C. et al. Cell-cycle reentry and cell death in transgenic mice expressing nonmutant human tau isoforms. J neurosci 25, 5446-5454 (2005). • 2. Santacruz, K. et al. Tau suppression in a neurodegenerative mouse model improves memory function. Science 309, 476-481 (2005). • 3. Fischer, A., Sananbenesi, F., Pang, P. T., Lu, B. & Tsai, L. H. Opposing roles of transient and prolonged expression of p25 in synaptic plasticity and hippocampus-dependent memory. Neuron 48, 825-838 (2005). • 4. Cruz, J. C. & Tsai, L. H. Jekyll and Hyde kinase: roles for Cdk5 in brain development and disease. Curr Opin Neurobiol. 14, 390-394 (2004). • 5. Cruz, J. C., Tseng, H. C., Goldman, J. A., Shih, H. & Tsai, L. H. Aberrant Cdk5 activation by p25 triggers pathological events leading to neurodegeneration and neurofibrillary tangles. Neuron 40, 471-83 (2003). • 6. Nithianantharajah, J. & Hannan, A. J. Enriched environments, experience-dependent plasticity and disorders of the nervous system. Nat Rev Neurosci 7, 697-709 (2006). • 7. Kim, J. J. & Fanselow, M. S. Modality-specific retrograde amnesia of fear. Science 256, 675-7 (1992). • 8. Gilmore, E. C. & Herrup, K. Neocortical cell migration: GABAergic neurons and cells in layers I and VI move in a cyclin-dependent kinase 5-independent manner. J Neurosci 21, 9690-700 (2001). • 9. […]

c-fos = c-fos positive cells after fear conditioning training; format: in vivo, mice; details: compared to saline treated group
Description: (§2) HDAC inhibitors regulate neuronal activity and neurogenesis in dentate gyrus. […] Thus, activity induced c-fos expression may also be used to evaluate the effect of HDAC inhibitors on hippocampus dependent learning. FIG. 17d is a bar graph depicting the significant enhancement by SAHA.

[1] = test system: lys9lys 14 on histone 3 and lys5 on histone 4; assay: Histone acetylation in brain lysates of treated mice; format: in vivo; details: compared to saline treated mice
Procedure: Immunoblotting and staining: Lysates for immunoblotting were prepared as described by Fischer et al. (3). To isolate histones, brain tissue was homogenized in TX-buffer (50 mM Tris HCL, 150 mM NACL, 2 mM EDTA, 1% Triton-100) and incubated at 4° C. for 15 min prior to centrifugation at 200 rpm for 10 min. After a wash-step in TX-buffer the pellet was dissolved in TX-buffer containing 0.2M HCl and incubated on ice for 30 min, before a second centrifugation at 10000 rpm for 10 min. The supernatant was either dialysed or directly used for immunoblotting. Antibodies were used in 1:1000 concentrations. All antibodies detecting histones and anti-PSD-95 were form Upstate (Lake Placid, N.Y.). Anti-synaptophysin (SVP38) was from Sigma. Anti-neuronal nuclei (neuN) and anti-growth associated protein (Gap43) were from Chemicon (Temecula, Calif.) and anti-N-cadherin, anti-β-catenin were from Santa Cruz (Santa Cruz, Calif.). Immunostaining was performed as described by Fischer et al. (3). Antibodies mentioned above were used in a 1:500 dilution. Anti-MAP-2 antibody (Sigma) was used in a 1:200 dilution.
as §1

dentate gyrus = assay: Neurogenesis in dentate gyrus (BrdU, DCX); design: species or system mice; details: mouse, in vivo
Description: as §2

SMILES | associative learning, contextual fear conditioning paradigm (C57BL/6J mice) | number of c-fos positive cells (c-fos) | acetylation of lys9lys 14 on histone 3 and lys5 on histone 4 in brain lysates [1] | DCX (marker for newly generated neurons) labeled cells in dentate gyrus (dentate gyrus) | BrdU positive cells in the subgranule zone of the dentate gyrus (dentate gyrus) | freezing behavior during the memory test (C57BL/6J mice; icv 100 ng SB or 50 ng TSA immediately after fear conditioning, test 24 h later, P<0.0001) | associative learning (C57BL/6J mice; wild type mice, intraperitoneal [ip] and intracerebroventricular [icv] injections)
Nc1ccccc1NC(=O)c1ccc(CNC(=O)OCc2cccnc2)cc1 [MS-275] | does not facilitate associative learning | lower number of c-fos positive cells | increased acetylation of lys9lys 14 on histone 3 and lys5 on histone 4 | not |  |  | 
O=C(CCCCCCC(=O)Nc1ccccc1)NO [SAHA, suberoylanilide hydroxamic acid] | more potent than SB in facilitating associative learning | higher number of c-fos positive cells | increased acetylation of lys9lys 14 on histone 3 and lys5 on histone 4 | labeled more cells | increased BrdU positive cells |  | 
CC(/C=C/C(=O)NO)=C\[C@@H](C)C(=O)c1ccc(N(C)C)cc1 [TSA, trichostatin A] |  |  |  |  |  | more freezing behavior than vehicle injected mice | significantly facilitated associative learning
